These results are taken from patent publication US9220264B2, “Multimeric forms of antimicrobial peptides” (Singapore Health Services Pte Ltd., priority 2008, dated 2015).

≈ marks a conversion by molar mass, not a printed value. Read-outs that look alike come from different tables or passages of the source. Bridge positions count the residues as written; N and C are the ends. Peptide text beside a SMILES is read from it. I, II: the chains in the order shown.

The test system of data set [1] is Clinical Pseudomonas aeruginosa PAE 230 DR4877/07 Source: Sputum. Format: cell-based. How it is done:
(§1) MICs was determined by broth macrodilution method modified from that described by the National Committee for Clinical Laboratory Standards (NCCL). The Mueller Hinton Broth (MHB) at ⅙ strength and without addition of Ca^2+ and Mg^2+ was used for dilution. Serial twofold dilutions of V2 dimer solution was prepared in MHB (⅙ strength) in test tubes. 1 ml of inoculum of test organisms in MHB (⅙ strength) was added to 1 ml of each dilution of V2 dimer to yield as final concentration of 10^4 to 10^5 colony forming units/ml in each test tube. The tubes were incubated at 35° C. for 16 to 20 hours. A positive control containing only the broth and organism, and a negative control tube containing only the broth were also incubated in parallel to the test samples. The above was repeated for each different test organism in separate experiments. The MIC of V2 dimer peptide for each clinical isolate or reference organism was read as the lowest concentration of peptide that inhibited visible growth of the test organism.
(§2) The MIC was also determined for other peptides and compared to gentamicin.

Data set [2] relates to Methicillin-resistant staphylococcus aureus (MRSA) DM09808R Source: Eye. It counts as cell-based. The note with it: MHB 1/6 strength; 35° C.; 16 to 20 hours. As to the method:
as §1, §2

Data set [3] deals with Clinical Escherichia coli DB16027 Source: Blood. Format: cell-based. As to the method:
as §1, §2

The test system of data set [4] is Clinical Pseudomonas aeruginosa PAE 239 DM5790/07 Source: Wound. It counts as cell-based. As to the method:
as §1, §2

In data set [5] the test system is Clinical Pseudomonas aeruginosa PA3-PAE 240 DU14476/07 Source: Urine. It counts as cell-based. The note with it: USP Phosphate Buffer pH 7.2, 4 hrs, 35° C. How it is done: (§3) The method for testing antimicrobial activity of antimicrobial peptides used an absolute killing procedure as described below. The bacterial cultures were grown on Trypticase Soy Agar (TSA) […], and the yeast culture on Sabouraud Dextrose Agar ([…] 35° C. for 16 hours. The organisms were harvested by centrifugation and washing twice in Phosphate buffer, pH 7.2 (United States Pharmacopeia, USP) at 20° C. The freeze-dried antimicrobial compound was dissolved in purified water and distributed into screw-capped plastic tubes at a concentration of 1,000 micro-grams (μg) per ml. These served as stock solutions and were kept at -20° C. On the day of conducting the test, one tube of the stock solution was defrosted and diluted in purified water to a concentration of 500 μg/ml. Thereafter, further dilutions were carried out in either USP Phosphate Buffer, pH 7.2 or other solutions (including but not limited to 10 mM sodium phosphate buffer, pH 7.4, 10 mM potassium buffer 7.2 or 155.2 mM NaCl), to the test concentrations required, normally ranging from 6.25 μg/ml to 50 μg/ml. Ten micro-liters (μl) of the test organism of standardised concentration was inoculated into one ml of the compound test solution of specific test concentration to provide a final count of between 1×10^5 cfu/ml and 1×10^6 cfu/ml as far as possible. The inoculated test solutions were than incubated at 35° C. for 4 hours. The incubation temperature and time may be varied as required. After incubation, the antimicrobial activity of the test solutions was inactivated by a 10-fold dilution in D/E Neutralising Broth (NB). Further dilutions were carried out in the NB, and plated out in TSA for bacteria, and SDA for yeast culture. The plates were incubated at 35° C. for 72 hours. The viable count of the survivor organisms was then determined. As an inoculum control, the test organism was inoculated, parallel to the Test, into the buffer used in the preparation of the test solutions instead and incubated under the same condition as the Test. The viable count of the inoculum control was determined as for the Test. […] The method described above was used for Examples 3-7 and in particular, the method for gentamicin in Example 6 is similar except that gentamicin was substituted for the antimicrobial compound.

Data set [6] has as its system Clinical Pseudomonas aeruginosa PA2-PAE 239 DM5790/07 Source: Wound. It counts as cell-based. The note with it: USP Phosphate Buffer pH 7.2, 4 hrs, 35° C. As to the method: as §3
Data set [7] has as its system Clinical Pseudomonas aeruginosa Ps-D 07DM023104 Source: Eye. Format: cell-based. The note with it: USP Phosphate Buffer pH 7.2, 4 hrs, 35° C. As to the method:
as §3

In data set [8] the test system is Clinical Pseudomonas aeruginosa PA4-PAE 249 DM15013 Source: Wound. Format: cell-based. The note with it: USP Phosphate Buffer pH 7.2, 4 hrs, 35° C. How it is done:
as §3

Data set [9] has as its system Clinical Pseudomonas aeruginosa Ps-C 07DM023155 Source: Eye. Format: cell-based. The note with it: USP Phosphate Buffer pH 7.2, 4 hrs, 35° C. How it is done: as §3
The subject of data set [10] is Clinical Pseudomonas aeruginosa PA1-PAE 230 DR4877/07 Source: Sputum. It counts as cell-based. Particulars: USP Phosphate Buffer pH 7.2, 4 hrs, 35° C. How it is done: as §3
Data set [11] has as its system human conjunctival epithelial cells. It counts as cell-based. As to the method: The results are from four independent experiments and data points show the mean and standard deviations. The X axis indicates the peptide concentration in μg/ml and the Y axis indicates the % cell viability. The cytotoxicity of V2 dimer were tested against human conjunctival cells according to the method described in WO 2007/126392 and compared with native hBD3. […] Wildtype hBD3 was cytotoxic at concentrations of about 15 μg/ml, however, the V2 dimer was not cytotoxic at concentrations of 100 μg/ml.

Data set [12] deals with Clinical Cadida albicans DF2672R Source: Urine. It counts as cell-based, Candida albicans. How it is done: as §1, §2
Data set [13] relates to Clinical Escherichia coli DU46381R Source: Urine. It counts as cell-based. As to the method: as §1, §2
The subject of data set [14] is Clinical Pseudomonas aeruginosa 07DM 023257 Source: Eye. It counts as cell-based. The note with it: Clinical 07DM 023257 Source: Eye. As to the method: as §1, §2
Data set [15] concerns Clinical Pseudomonas aeruginosa DM 023104 Source: Eye. Format: cell-based. Particulars: Clinical DM 023104 Source: Eye. As to the method: as §1, §2
Data set [16] concerns Clinical Pseudomonas aeruginosa PAE 240 DU14476/07 Source: Urine. Format: cell-based. Particulars: Clinical PAE 240 DU14476/07 Source: Urine. As to the method:
as §1, §2

In data set [17] the test system is Escherichia coli ATCC25922. It counts as cell-based. As to the method: as §1, §2
Data set [18] deals with Candida albicans ATCC10231. Format: cell-based. How it is done:
as §1, §2

The test system of data set [19] is Fusarium solani ATCC 36031. It counts as cell-based. As to the method: as §1, §2
In data set [20] the test system is Clinical Pseudomonas aeruginosa DM 023155 Source: Eye. It counts as cell-based. Particulars: Clinical DM 023155 Source: Eye. How it is done:
as §1, §2

The subject of data set [21] is Clinical Pseudomonas aeruginosa PAE 249 DM15013 Source: Wound. It counts as cell-based. The note with it: Clinical PAE 249 DM15013 Source: Wound. As to the method:
as §1, §2

Data set [22] relates to Clinical Pseudomonas aeruginosa 07DM023376 Source: Eye. Format: cell-based. Particulars: Clinical 07DM023376 Source: Eye. How it is done: as §1, §2
Data set [23] deals with Clinical Staphylococcus aureus DM4001 Source: Eye. It counts as cell-based. How it is done: as §1, §2
Setting [24] is: MHB 1/6 strength, 35° C., 16 to 20 hours.
Setting [25] is: Clinical PAE 230 DR4877/07 Source: Sputum.
Setting [26] is: Clinical PAE 239 DM5790/07 Source: Wound.

For orientation: MIC means the lowest concentration that inhibits growth of the organism. A lower MIC goes with inhibition by little substance. Gentamicin: the minimal inhibitory concentration (MIC) in data set [1] (setting [24]) was determined as 400 µg/mL; in [2], 12.5 µg/mL; in [3] (setting [24]), 0.78 µg/mL; in [4] (setting [24]) it was 25 µg/mL. For the same molecule, the “Log Reduction” value in [5] (3.125 ug/ml) came to 3.66; in data set [5] (6.25 ug/ml), 3.76; in data set [5] (12.5 ug/ml), 3.88; in data set [5] (25.0 ug/ml), 4.18; in data set [5] (50.0 ug/ml) it was 4.57; in [6] (3.125 ug/ml), 3.02. Also, the “Log Reduction” value in [6] (6.25 ug/ml) is reported as 3.07; in data set [6] (12.5 ug/ml), 3.03; in data set [6] (25.0 ug/ml), 3.04; in data set [6] (50.0 ug/ml) it was 3.31; in data set [7] (3.125 ug/ml) it was greater than 4.33; in data set [7] (6.25 ug/ml), greater than 4.33. Besides, the “Log Reduction” value was greater than 4.33 in data set [7] (12.5 ug/ml); greater than 4.33 in [7] (25.0 ug/ml); greater than 4.33 in [7] (50.0 ug/ml); 2.28 in [8] (3.125 ug/ml); 2.41 in data set [8] (6.25 ug/ml); 2.50 in data set [8] (12.5 ug/ml). For the same molecule, the “Log Reduction” value is listed as 2.60 in data set [8] (25.0 ug/ml); 2.63 in data set [8] (50.0 ug/ml); greater than 4.61 in data set [9] (3.125 ug/ml); greater than 4.61 in data set [9] (6.25 ug/ml); greater than 4.61 in data set [9] (12.5 ug/ml); greater than 4.61 in data set [9] (25.0 ug/ml). In addition, the “Log Reduction” value in [9] (50.0 ug/ml) was greater than 4.61; in data set [10] (3.125 ug/ml) it was 0.22; in data set [10] (6.25 ug/ml), 0.35; in [10] (12.5 ug/ml) it was 0.65; in data set [10] (25.0 ug/ml), 0.54; in data set [10] (50.0 ug/ml), 0.39.
With “GIINTLQKYYCRVRGGRCAVLSCLPKEEQIGKCSTRGRKCCRRKK (Homo sapien) [Wildtype hBD3, reference compound]”, the “concentration at which cytotoxic” value in data set [11] is listed as “about 15 μg/ml”.
Take `CC(C)[C@H](NC(=O)[C@@H](NC(=O)[C@H](CCCNC(=N)N)NC(=O)[C@H](CCCNC(=N)N)NC(=O)[C@@H](NC(=O)[C@@H](NC(=O)[C@H](CCCCN)NC(=O)[C@H](CCCNC(=N)N)NC(=O)CNC(=O)[C@@H](N)CCCNC(=N)N)C(C)C)C(C)C)C(C)C)C(=O)O` [V4 monomer, RGRKVVRRVV] (H-RGRKVVRRVV-OH; N-terminus and C-terminus assumed): the MIC in [12], in data set [13], in data set [14], in data set [1] (setting [25]), in data set [15] and in data set [16] was greater than 50 µg/mL throughout. The MIC in data set [17] is greater than 50 µg/mL; in data set [18], 25 µg/mL (≈ 20.4 µM); in data set [19] it was greater than 100 µg/mL; in data set [20], greater than 50 µg/mL; in [3] (Clinical DB16027 Source: Blood), greater than 50 µg/mL; in data set [21], greater than 50 µg/mL. The MIC in [22], in [4] (setting [26]) and in data set [23] was greater than 50 µg/mL each time.
`N=C(N)NCCC[C@H](NC(=O)CNC(=O)[C@@H](N)CCCNC(=N)N)C(=O)N[C@@H](CCCCN)C(=O)N[C@@H](Cc1c[nH]c2ccccc12)C(=O)N[C@@H](Cc1c[nH]c2ccccc12)C(=O)N[C@@H](CCCNC(=N)N)C(=O)N[C@@H](CCCNC(=N)N)C(=O)NCCCC[C@H](NC(=O)[C@H](CCCNC(=N)N)NC(=O)[C@H](CCCNC(=N)N)NC(=O)[C@H](Cc1c[nH]c2ccccc12)NC(=O)[C@H](Cc1c[nH]c2ccccc12)NC(=O)[C@H](CCCCN)NC(=O)[C@H](CCCNC(=N)N)NC(=O)CNC(=O)[C@@H](N)CCCNC(=N)N)C(=O)N[C@@H](CCCCN)C(=O)O` [W2-dimer] (I: H-RGRKWWRRKK-OH / II: H-RGRKWWRR; amide I:9-II:C; N-terminus assumed): the MIC was 12.5 µg/mL (≈ 4.74 µM) in data set [12]; 6.25 µg/mL (≈ 2.37 µM) in data set [13]; 12.5 µg/mL (≈ 4.74 µM) in data set [14]; 12.5 µg/mL (≈ 4.74 µM) in data set [1] (setting [25]); 12.5 µg/mL (≈ 4.74 µM) in [15]; 12.5 µg/mL (≈ 4.74 µM) in [16]. Besides, the MIC came to 25 µg/mL (≈ 9.47 µM) in data set [17]; 12.5 µg/mL (≈ 4.74 µM) in [18]; 12.5 µg/mL (≈ 4.74 µM) in data set [19]; 12.5 µg/mL (≈ 4.74 µM) in data set [20]; 12.5 µg/mL (≈ 4.74 µM) in data set [3] (Clinical DB16027 Source: Blood); 6.25 µg/mL (≈ 2.37 µM) in data set [21]. The results for the MIC in data set [22], in [4] (setting [26]) and in [23] were 25 µg/mL (≈ 9.47 µM), 12.5 µg/mL (≈ 4.74 µM) and 12.5 µg/mL (≈ 4.74 µM), respectively.
